Measured values from US20240075036A1, “THERAPEUTIC COMBINATIONS INCLUDING INHIBITORS OF THE P2X4 RECEPTOR FOR TREATING AND PREVENTING PROLIFERATIVE DISORDERS” (CHEMOTHERAPEUTISCHES FORSCHUNGSINSTITUT GEORG-SPEYER-HAUS, priority 2021, published 2024).
Residues, ends and D or L forms follow the SMILES beside them. *: point of attachment. Cbz = O=C(OCc1ccccc1)*; CH2F = FC*

Experiments:
[1] = system: subcutaneous AOM/DSSATKN tumors; assay type: in vivo, NSG mice
[2] = system: Lgr5EGFP-DTR(+) tumor organoids; test: Tumor organoid survival / cell death upon treatment with or without DT; assay type: cell-based, mice
From the text: Representative images are shown from at least three independent experiments. c, Average tumor size was counted on serial hematoxylin and eosin (H&E) stained sections on day 9 after 4 injections of either DT or vehicle. Data are mean±SD, n≥8/treatment. p>0.05 (n.s., not significant) by two-tailed Student's t-test. d, Immunohistochemical analysis and quantification of Lgr5-EGFP expression in GFP-stained colon tumor from Lgr5EGFP-DTR(+) mice on day 9 treated with DT as indicated in a). Representative images are shown (n≥8/treatment, scale bar=300 μm). […] Representative images are shown from four independent experiments (n=4/treatment, scale bar=200 μm). Data represent mean±SD, n=4/treatment. p>0.05 (n.s., not significant) by two-tailed Student's t-test. f, Flow cytometric analysis of Lgr5-EGFP+tumor cells from Lgr5EGFP-DTR(+) tumor organoids 24 h after DT treatment. Representative results are shown (n≥3). g, AOM/DSS colon tumor organoids from Lgr5EGFP-DTR(−) and Lgr5EGFP-DTR(+) mice were treated with DT (20 ng/ml) for 24 h. Representative images are shown from two independent experiments (scale bar=200 μm). h, Immunoblot analysis of Lgr5EGFP-DTR(+) and Lgr5EGFP-DTR(−) tumor organoids treated with DT for 24 h. […] 1, Control and raptor knockdown Lgr5EGFP-DTR(+) tumor organoids were passaged and counted after 72 h. […]

[3] = system: S6 ribosomal protein phosphorylation (mTOR signaling); test: Immunoblot analysis of survival pathways / S6 phosphorylation in AOM/DSS tumor organoids; assay type: cell-based, mice; settings: for ATP induced phosphorylation of S6: ATP (100 μM) in presence of inhibitor, AOM/DSS tumor organoids
Experimental: Data are mean±SD, n=7. *p<0.05 by two-tailed Student's t-test. c, Immunoblot analysis of Lgr5EGFP-DTR(−) tumor organoids treated with ATP (100 μM), 2MeS ADP (100 μM) and adenosine (100 μM) for 30 min. […] Data are mean±SD, n=4 replicates. […] Data are mean±SD, n=3 replicates. One representative of three experiment performed is shown. n.s. p>0,05, *p<0.05***, p<0.001, ****p<0.0001 by 1-way ANOVA with Bonferroni's multiple comparison test. 1, Immunoblot analysis of doxycycline inducible P2x4 knockdown APTAK colon tumor organoids treated with 5-FU (20 μM). Organoids were cultured in medium−/+doxycycline prior to the experiment. […] Organoids were cultured in medium−/+doxycycline prior to the experiment. […] Data are mean±SD, n=3.
In vitro Lgr5+ cells ablation experiments, organoids were treated with 20 ng/ml DT (Millipore, #322326) in the culture medium. For human LGR5+ cells ablation, we treated LGR5-iCT organoids with 500 nM BB homodimerizer. Other treatments were performed as described in each figure legends.

[4] = system: AOM/DSSATKN tumor organoids; settings: for rescue of organoid reseeding capacity under 5-FU/rapamycin: inhibitor of potential proapoptotic DAMPs added to 5-FU (20 μM) plus rapamycin (10 μM), 48 hours, re-seeded 72 h
From the text: Percentage of reseeding capacity compared to vehicle treated organoids is indicated. Data are mean±SD, n=4 replicates. […] Percentage of reseeding capacity compared to vehicle treated organoids is indicated.

[5] = system: S6 phosphorylation in intestinal epithelial cells (IEC); test: S6 phosphorylation in intestinal epithelial cells of wildtype mice; assay type: in vivo; settings: azoxymethane (10 mg/kg single injection), untransformed wildtype mice
Experimental: (§1) Data are mean±SD, n=3. […] Data are mean±SD, n=3.
Immunostaining was performed as previously described (35). Briefly, tissues were fixed with 4% paraformaldehyde. Six μm OCT frozen tissue sections or 5 μm paraffin-embedded tissue sections were processed for immunostaining using a standard histological protocol. Following primary antibodies were used: EGFP (Abcam, #ab6673), tdTomato (Rockland, #600-401-379), cleaved caspase 3 (Cell Signaling, #9579), Ki67 (Leica Bioststems, #NCL-L-Ki67-MM1), phospho-S6 (Cell Signaling, #2211),P2x4 (Abcam #134559). Sections were then incubated with HRPconjugated antibodies (Dako) and signal was detected with DAB reaction. For immunofluorescence staining after primary antibody incubation, sections were incubated with flourochrome-labelled secondary antibodies (Invitrogen) and sections were mounted with ProLong Gold Antifade Mountant with DAPI (Invitrogen, #P36931). Images were captured on a Zeiss microscope.

[6] = system: HCT-116 cells; settings: combination of SAMC and rapamycin; cited from earlier work
[7] = system: refractory metastatic colorectal cancer / refractory solid tumors; settings: further addition of panitumumab to everolimus + mFOLFOX6; cited from earlier work
[8] = system: S6 ribosomal protein phosphorylation, DNA damage and apoptosis markers
[9] = system: subcutaneous APTAKshP2x4 tumors; test: Subcutaneous APTAKshP2x4 tumors, 5-FU/rapamycin with or without NAC; assay type: in vivo, mice; settings: additional application of NAC (0,5% in drinking water)
Experimental: as §1
Organoids were collected using ice cold Cell Recovery Solution (Corning, #354253) and mechanically dissociated into small clusters. Dissociated organoid cells were resuspended in PBS, admixed with 50% Matrigel (Corning, #356231) in a final volume of 100 μl, and injected subcutaneously in the right flank of NSG mice. Tumor size was monitored with a digital caliper and tumor volumes were calculated according to the formula (length×width×width)/2. At the end of experiments mice were humanely euthanized to collect tumors.
DT (Millipore, #322326) treatment was performed as previously described (3, 4). Briefly, DT was injected intraperitonially at a dose of 50 μg/kg for the time indicated in individual experiments. mTOR inhibitor rapamycin (LC Labs, #-5000) was dissolved in 5% Ethanol, 5% PEG400 and 5% Tween 80 in PBS and injected i.p. at 10 mg/kg once a day for indicated time. 0.5% N-acetylcysteine (Sigma-Aldrich, #A91165) was applied ad libitum in drinking water. 0.5 mg/ml Doxycycline (Sigma #D9891) was applied ad libitum in drinking water containing 3% Sucrose. 5-FU (Sigma #F6627) was dissolved in sterile H2O and injected intraperitoneally for the time indicated in individual experiments at a concentration of 20 mg/kg.

[10] = system: human colon organoids derived from tumor tissue; test: ROS measurement with DCFDA in organoids; assay type: cell-based; settings: 5-FU (20 μM, 20 h)
Experimental: as §1
ATP level in organoid supernatant or necrotic medium was measured using the CellTiter-Glo 2.0 Cell Viability Assay (Promega #G9242) according to the manufacturers instruction. ROS levels were measured using H2DCFDA (ThermoFisher #D339). Briefly, organoids were treated as indicated with 5-FU, stained with H2DCFDA and then analyzed for H2DCFDA positivity using fluorescence microscopy or FACS.

[11] = system: APTAK tumor organoids; test: APTAK tumor organoids: S6 phosphorylation and organoid survival; assay type: cell-based, mice; settings: 5-FU
Experimental: Organoids were cultured in medium−/+doxycycline prior to the experiment. […] Organoids were cultured in medium−/+doxycycline prior to the experiment.
Colon tumor organoids were cultured as previously described (27). AOM/DSS induced colon tumors were harvested by opening the colon longitudinally and dissociated enzymatically for 30-40 min in digestion media containing 1 mg/ml collagenase I (Sigma-Aldrich), 0.5 mg/ml Dispase (Roche), 50 μg/ml DNase (Sigma-Aldrich) in RPMI medium containing 2% FCS. Supernatant was washed and filtered through a 70 μM cell strainer. Cells were then embedded in Matrigel (Corning, #356231) and cultured in Advanced Dulbecco's modified Eagle's medium/F12 (Invitrogen, #12634-028) supplemented with Glutamax (Invitrogen, #35050038), Hepes (Invitrogen, #15630056), Pen/Strep (Invitrogen, #15140122), N2 supplement (Invitrogen, #17502048), B27supplement (Invitrogen, #17504044) and n-Acetylcysteine (Sigma-Aldrich, #A91165). EGF (Invitrogen, #PMG8045), RspoI and noggin were added as niche factor.

[12] = system: PC3 and C4-2B4 cells; settings: selective P2XR4 antagonists; cited from earlier work

NC(=O)c1ncn([C@@H]2O[C@H](CO)[C@@H](O)[C@H]2O)c1O [mizoribine]
S6-ribosomal protein phosphorylation ([1]; mizoribine in combination with DT-mediated depletion of Lgr5+ cells): without affecting S6-ribosomal protein phosphorylation
viable proliferative tumor cells ([1]; mizoribine in combination with DT-mediated depletion of Lgr5+ cells, s.c. tumors): markedly reduced viable proliferative
organoid collapse ([2]; mizoribine in combination with DT-mediated depletion of Lgr5+ cells, ex vivo): profound organoid collapse

Nc1nc2c(ncn2[C@@H]2O[C@@H]3COP(=O)(O)O[C@H]4[C@@H](O)[C@H](n5cnc6c(N)ncnc65)O[C@@H]4COP(=O)(O)O[C@@H]2[C@@H]3O)c(=O)[nH]1 [cGAMP]
phosphorylation of S6-ribosomal protein ([3]; exogenous cGAMP): induced phosphorylation of S6-ribosomal protein in a dose dependent manner

Anakinra: IL-1 signaling inhibitor
rescue of organoid reseeding capacity under 5-FU/rapamycin [4]: only inhibition of ROS signaling by NAC was able to rescue

CN=[N+](C)[O-] [azoxymethane]
S6 phosphorylation in IEC [5]: enhanced S6 phosphorylation in IEC

COC(=O)C[C@H](NC(=O)[C@H](C)NC(=O)[C@@H](NC(=O)OCc1ccccc1)C(C)C)C(=O)CF [zVAD, carbobenzoxy-valyl-alanyl-aspartyl-[O-methyl]-fluoromethyl ketone] (Cbz-Val-Ala-Asp(OMe)-CH2F)
organoid survival under combined 5-FU/rapamycin treatment ([4]; apoptosis inhibitor zVAD (50 μM) added): rescued the negative effect of combined 5-FU/rapamycin treatment on organoid survival

C=CCSSC[C@H](N)C(=O)O [SAMC, S-allylmercapto-cysteine]
tumor suppression [6]: enhanced tumor-suppressing ability

panitumumab: added to everolimus + mFOLFOX6 in phase I trial
toxicity [7]: unacceptable level of toxicity

CC(=O)N[C@@H](CS)C(=O)O [NAC, N-acetylcysteine]
DNA damage and apoptosis in tumor organoids ([8]; NAC (2 mM) in addition to DT and rapamycin, compared to DT/rapamycin alone): decreased DNA damage and apoptosis
apoptosis in tumor tissues (cleaved Caspase 3) ([1]; NAC (0,5% in drinking water) in DT/rapamycin treated animals): reduced apoptosis in tumor tissues
tumor regression in 5-FU/rapamycin treated mice [9]: revert tumor regression

Cc1nc(N=Nc2ccc(S(=O)(=O)O)cc2S(=O)(=O)O)c(COP(=O)(O)O)c(C=O)c1O [PPADS]
Lgr5+ cell death induced S6 phosphorylation ([3]; non-selective P2 receptor antagonists): blocked Lgr5+ cell death induced S6 phosphorylation

Clc1cccc(-c2nnnn2Cc2cccnc2)c1Cl [A-438079]
ATP induced phosphorylation of S6 [3]: did not decrease ATP dependent S6 phosphorylation

O=C(Nc1ccc(C(=O)Nc2ccc(C(=O)Nc3ccc(S(=O)(=O)O)c4cc(S(=O)(=O)O)cc(S(=O)(=O)O)c34)cc2)cc1)Nc1ccc(C(=O)Nc2ccc(C(=O)Nc3ccc(S(=O)(=O)O)c4cc(S(=O)(=O)O)cc(S(=O)(=O)O)c34)cc2)cc1 [NF279]
ATP induced phosphorylation of S6 [3]: did not decrease ATP dependent S6 phosphorylation

O=c1[nH]cc(F)c(=O)[nH]1 [5-FU, 5-fluorouracil]
ROS levels (DCFDA) [10]: tumor organoid specific ROS increase
S6 phosphorylation [11]: led to mTOR dependent S6 phosphorylation
S6 phosphorylation ([8]; 5-FU (20 μM, 24 hours), AOM/DSS tumor tissues and tumor organoids): induced S6 phosphorylation
phosphorylation of S6 ([3]; 5-FU, absence of Lgr5+ cells (Noggin withdrawal)): able to induce phosphorylation of S6

Nc1ncnc2c1ncn2[C@@H]1O[C@H](COP(=O)(O)OP(=O)(O)OP(=O)(O)O)[C@@H](O)[C@H]1O [ATP, adenosine triphosphate]
phosphorylation of S6-ribosomal protein ([3]; Lgr5EGFP-DTR(−) tumor organoids, 100 μM, 30 min): induced phosphorylation of S6-ribosomal protein

Enbrel
rescue of organoid reseeding capacity under 5-FU/rapamycin [4]: only inhibition of ROS signaling by NAC was able to rescue

Cc1ccc(S(=O)(=O)N2c3ccccc3Oc3ccccc32)cc1 [PSB-12062]
growth, mobility and apoptosis of PCa cells [12]: impaired the growth and mobility of PCa cells but not apoptosis

CNC(=O)c1ccc(C)c(-n2c(C)cc(OCc3ccc(F)cc3F)c(Br)c2=O)c1 [PH797804]
tumor organoid survival ([2]; MAPK inhibitor (JNK or p38) in the presence or absence of DT): did not affect tumor organoid survival

Apyrase
S6 phosphorylation induced by DT treatment or necrotic supernatant ([3]; Apyrase hydrolyzing released ATP): reduce the levels of S6 phosphorylation
